Numbered stars: 1 amine (or outer) side, 2 acyl side, 3 side chain; on linkers, the order of the positions; unused ones are H or OH. Square brackets hold non-standard residues; d marks the D form. Peptide text beside a SMILES is read from it. * marks the point of attachment. ξ: configuration not given here. C14 diacid = O=C(O)CCCCCCCCCCCCC(=O)*; Pentanoyl(5-Ph) = O=C(CCCCc1ccccc1)*; C12 diacid = O=C(O)CCCCCCCCCCC(=O)*; Adipoyl = O=C(CCCCC(=O)[*:2])[*:1]; Malonyl = O=C(CC(=O)[*:2])[*:1]; ξR = N=C(N)NCCCC(N)C(=O)O; Aun = NCCCCCCCCCCC(=O)O; Pentanoyl = CCCCC(=O)*; Propionyl = CCC(=O)*; Butyryl = CCCC(=O)*
The compounds below were run against T1, Tyrosine-protein phosphatase non-receptor type 1 (Homo sapiens) (UniProt P18031) (assay: Inhibition of N-terminal His tagged recombinant human PTP1B expressed in Escherichia coli using pNPP as substrate assessed as substrate hydrolysis at 40 umol/L relative to control). Conditions: dose 40.0 µmol/L.
T1 sequence (whole entry): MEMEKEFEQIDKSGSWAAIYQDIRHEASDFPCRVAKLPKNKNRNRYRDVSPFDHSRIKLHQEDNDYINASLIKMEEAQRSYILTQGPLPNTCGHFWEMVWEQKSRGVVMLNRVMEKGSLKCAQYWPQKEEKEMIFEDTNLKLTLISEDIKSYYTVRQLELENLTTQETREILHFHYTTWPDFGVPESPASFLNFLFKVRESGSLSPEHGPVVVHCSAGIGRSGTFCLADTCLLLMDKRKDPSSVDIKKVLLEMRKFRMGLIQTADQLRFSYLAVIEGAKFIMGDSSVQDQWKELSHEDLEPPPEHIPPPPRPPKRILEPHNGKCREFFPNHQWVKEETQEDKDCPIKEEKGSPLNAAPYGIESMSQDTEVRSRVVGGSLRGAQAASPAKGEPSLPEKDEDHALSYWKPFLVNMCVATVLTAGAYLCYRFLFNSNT

Compound | inhibition [%]
CC[C@H](C)[C@H](NC(=O)CCCCCCCCCCN)C(=O)N[C@@H](C)C(=O)N[C@@H](CCC(N)=O)C(=O)N[C@@H](CCC(=O)O)C(=O)N[C@@H](CC(C)C)C(=O)N[C@@H](CCCNC(=N)N)C(=O)N[C@@H](CCCNC(=N)N)C(=O)N[C@H](C(=O)NCC(=O)N[C@@H](CC(=O)O)C(=O)N[C@@H](CCC(=O)O)C(=O)N[C@@H](Cc1ccccc1)C(=O)O)[C@@H](C)CC (H-[Aun]IAQELRRIGDEF-OH) | < 50
CCC(=O)N[C@H](C(=O)N[C@@H](C)C(=O)N[C@@H](CCC(N)=O)C(=O)N[C@@H](CCC(=O)O)C(=O)N[C@@H](CC(C)C)C(=O)N[C@@H](CCCNC(=N)N)C(=O)N[C@@H](CCCNC(=N)N)C(=O)N[C@H](C(=O)NCC(=O)N[C@@H](CC(=O)O)C(=O)N[C@@H](CCC(=O)O)C(=O)N[C@@H](Cc1ccccc1)C(=O)O)[C@@H](C)CC)[C@@H](C)CC (Propionyl-IAQELRRIGDEF-OH) | < 50
CC[C@H](C)[C@H](NC(=O)CCCCC(=O)O)C(=O)N[C@@H](C)C(=O)N[C@@H](CCC(N)=O)C(=O)N[C@@H](CCC(=O)O)C(=O)N[C@@H](CC(C)C)C(=O)N[C@@H](CCCNC(=N)N)C(=O)N[C@@H](CCCNC(=N)N)C(=O)N[C@H](C(=O)NCC(=O)N[C@@H](CC(=O)O)C(=O)N[C@@H](CCC(=O)O)C(=O)N[C@@H](Cc1ccccc1)C(=O)O)[C@@H](C)CC (Adipoyl-IAQELRRIGDEF-OH) | < 50
Ac-IAQELRRIGDEF-OH | < 50
CC[C@H](C)[C@H](NC(=O)CC(=O)O)C(=O)N[C@@H](C)C(=O)N[C@@H](CCC(N)=O)C(=O)N[C@@H](CCC(=O)O)C(=O)N[C@@H](CC(C)C)C(=O)N[C@@H](CCCNC(=N)N)C(=O)N[C@@H](CCCNC(=N)N)C(=O)N[C@H](C(=O)NCC(=O)N[C@@H](CC(=O)O)C(=O)N[C@@H](CCC(=O)O)C(=O)N[C@@H](Cc1ccccc1)C(=O)O)[C@@H](C)CC (Malonyl-IAQELRRIGDEF-OH) | < 50

Second part, the compound after the results:

inhibition [%] | Compound
< 50 | CCCC(=O)N[C@H](C(=O)N[C@@H](C)C(=O)N[C@@H](CCC(N)=O)C(=O)N[C@@H](CCC(=O)O)C(=O)N[C@@H](CC(C)C)C(=O)N[C@@H](CCCNC(=N)N)C(=O)N[C@@H](CCCNC(=N)N)C(=O)N[C@H](C(=O)NCC(=O)N[C@@H](CC(=O)O)C(=O)N[C@@H](CCC(=O)O)C(=O)N[C@@H](Cc1ccccc1)C(=O)O)[C@@H](C)CC)[C@@H](C)CC (Butyryl-IAQELRRIGDEF-OH)
< 50 | CC[C@H](C)[C@H](NC(=O)CCCCCCCCCCC(=O)O)C(=O)N[C@@H](C)C(=O)N[C@@H](CCC(N)=O)C(=O)N[C@@H](CCC(=O)O)C(=O)N[C@@H](CC(C)C)C(=O)N[C@@H](CCCNC(=N)N)C(=O)N[C@@H](CCCNC(=N)N)C(=O)N[C@H](C(=O)NCC(=O)N[C@@H](CC(=O)O)C(=O)N[C@@H](CCC(=O)O)C(=O)N[C@@H](Cc1ccccc1)C(=O)O)[C@@H](C)CC ({C12 diacid}-IAQELRRIGDEF-OH)
< 50 | CC[C@H](C)[C@H](NC(=O)CCCCCCCCCCCCC(=O)O)C(=O)N[C@@H](C)C(=O)N[C@@H](CCC(N)=O)C(=O)N[C@@H](CCC(=O)O)C(=O)N[C@@H](CC(C)C)C(=O)N[C@@H](CCCNC(=N)N)C(=O)NC(CCCNC(=N)N)C(=O)N[C@H](C(=O)NCC(=O)N[C@@H](CC(=O)O)C(=O)N[C@@H](CCC(=O)O)C(=O)N[C@@H](Cc1ccccc1)C(=O)O)[C@@H](C)CC (stereo not given in full) ({C14 diacid}-IAQELR[ξR]IGDEF-OH)
< 50 | CC[C@H](C)[C@H](NC(=O)CCCCc1ccccc1)C(=O)N[C@@H](C)C(=O)N[C@@H](CCC(N)=O)C(=O)N[C@@H](CCC(=O)O)C(=O)N[C@@H](CC(C)C)C(=O)N[C@@H](CCCNC(=N)N)C(=O)N[C@@H](CCCNC(=N)N)C(=O)N[C@H](C(=O)NCC(=O)N[C@@H](CC(=O)O)C(=O)N[C@@H](CCC(=O)O)C(=O)N[C@@H](Cc1ccccc1)C(=O)O)[C@@H](C)CC ({Pentanoyl(5-Ph)}-IAQELRRIGDEF-OH)
< 50 | CCCCC(=O)N[C@H](C(=O)N[C@@H](C)C(=O)N[C@@H](CCC(N)=O)C(=O)N[C@@H](CCC(=O)O)C(=O)N[C@@H](CC(C)C)C(=O)N[C@@H](CCCNC(=N)N)C(=O)N[C@@H](CCCNC(=N)N)C(=O)N[C@H](C(=O)NCC(=O)N[C@@H](CC(=O)O)C(=O)N[C@@H](CCC(=O)O)C(=O)N[C@@H](Cc1ccccc1)C(=O)O)[C@@H](C)CC)[C@@H](C)CC (Pentanoyl-IAQELRRIGDEF-OH)

Source: ChEMBL document CHEMBL5316338, “Discovery of Novel PTP1B Inhibitors with Once-Weekly Therapeutic Potential for Type 2 Diabetes: Design, Synthesis, and In Vitro and In Vivo Investigations of BimBH3 Peptide Analogues” (J Med Chem, 2023)
